Source: ChEMBL document CHEMBL2203269, “Target-Activated Prodrugs (TAPs) for the Autoregulated Inhibition of MMP12” (ACS Med Chem Lett, 2012)
Activity calls are given as the source filed them.

Assays:
[1] = target: T1, Interstitial collagenase (Homo sapiens) (UniProt P03956); assay: Activity at MMP1
T1 sequence (whole entry): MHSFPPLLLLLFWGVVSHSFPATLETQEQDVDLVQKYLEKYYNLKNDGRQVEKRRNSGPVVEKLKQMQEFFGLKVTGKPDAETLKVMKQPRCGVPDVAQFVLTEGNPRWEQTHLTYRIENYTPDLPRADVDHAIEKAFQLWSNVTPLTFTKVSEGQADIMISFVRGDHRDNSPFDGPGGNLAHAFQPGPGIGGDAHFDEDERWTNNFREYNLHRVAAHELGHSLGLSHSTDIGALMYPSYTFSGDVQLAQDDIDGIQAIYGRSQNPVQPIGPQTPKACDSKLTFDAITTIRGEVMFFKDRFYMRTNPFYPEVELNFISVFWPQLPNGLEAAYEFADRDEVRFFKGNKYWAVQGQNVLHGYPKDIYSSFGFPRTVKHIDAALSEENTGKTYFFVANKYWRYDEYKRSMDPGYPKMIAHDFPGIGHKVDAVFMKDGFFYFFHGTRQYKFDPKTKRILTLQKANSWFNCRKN

[2] = target: 72 kDa type IV collagenase (Homo sapiens) (UniProt P08253); assay: Activity at MMP2
[3] = target: T2, Matrilysin (Homo sapiens) (UniProt P09237); assay: Activity at MMP7
T2 sequence (whole entry): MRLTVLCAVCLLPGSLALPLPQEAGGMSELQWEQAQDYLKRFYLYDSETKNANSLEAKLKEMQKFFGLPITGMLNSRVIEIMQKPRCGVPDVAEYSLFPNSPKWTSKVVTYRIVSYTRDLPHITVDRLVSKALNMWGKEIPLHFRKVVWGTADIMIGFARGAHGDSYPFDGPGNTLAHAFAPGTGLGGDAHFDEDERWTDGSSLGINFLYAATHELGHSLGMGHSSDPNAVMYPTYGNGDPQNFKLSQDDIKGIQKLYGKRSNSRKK

Measured: Activity

Chain of 72 kDa type IV collagenase (Homo sapiens) (P08253 110-660 limits assumed): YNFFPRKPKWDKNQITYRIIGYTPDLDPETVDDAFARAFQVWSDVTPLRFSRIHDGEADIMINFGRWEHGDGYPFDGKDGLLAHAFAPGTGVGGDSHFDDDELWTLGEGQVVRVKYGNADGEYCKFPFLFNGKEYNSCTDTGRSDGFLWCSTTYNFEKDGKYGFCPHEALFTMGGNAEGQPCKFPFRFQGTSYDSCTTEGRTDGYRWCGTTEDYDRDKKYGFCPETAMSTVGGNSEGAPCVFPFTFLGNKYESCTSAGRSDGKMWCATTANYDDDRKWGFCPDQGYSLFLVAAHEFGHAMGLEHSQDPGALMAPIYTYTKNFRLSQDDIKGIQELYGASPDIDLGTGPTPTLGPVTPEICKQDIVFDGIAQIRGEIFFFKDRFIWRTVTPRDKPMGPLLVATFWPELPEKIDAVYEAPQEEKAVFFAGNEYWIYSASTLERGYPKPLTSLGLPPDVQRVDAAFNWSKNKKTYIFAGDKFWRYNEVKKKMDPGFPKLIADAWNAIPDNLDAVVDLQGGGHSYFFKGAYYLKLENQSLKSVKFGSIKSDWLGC

CC(C)C[C@H](NC(=O)CN(C(=O)[C@H](CC(C)C)NC(=O)[C@@H]1CCCN1C(=O)OCc1ccccc1)S(=O)(=O)c1ccc(-c2ccccc2)cc1)C(=O)N[C@@H](CCC(=O)O)C(=O)N[C@@H](CCC(=O)O)C(=O)N[C@@H](C)C(N)=O
active: all assays above
